Source: patent US8124637B2, “Anthra [1, 2-d]imidazole-6,11-dione derivatives, preparation method and application thereof” (National Defense Medical Center, priority 2010, dated 2012)

Columns and labels:
[1] = test system: hTERT promoter (PhTERT) expression; assay: SEAP assay (PhTERT-SEAP reporter, H1299); assay type: cell-based, human; conditions: Homo sapiens, NCI-H1299, PhTERT-SEAP (H1299); for activity at 1 µM: read-out: Relative SEAP activity (%); for activity at 10 µM / activity at 100 µM: read-out: Relative SEAP activity (%) (converted)
Description: H1299 were grown in RPMI 1640 media supplemented with 10% fetal bovine serum, 100 units/mL penicillin and […] streptomycin in a humidified atmosphere with 5% CO2 at 37° C. Culture media were changed every three days. To establish stable cell lines that the expression of hTERT could be monitored by a reporter system, a about 3.3 kbp DNA fragment ranging from −3338 to +1 bp of the hTERT gene (hTERT promoter, PhTERT) was subcloned upstream to a secreted alkaline phosphatase gene (SEAP) and transfected into H1299 bp electroporation. The stable clones were selected using G418. The stable clones derived from H1299 were cultured using conditions that are similar to their parental cells.
Secreted alkaline phosphatase was used as the reporter system to monitor the transcriptional activity of hTERT. Here, about 10^4 cells each were grown in 96-well plates and incubated at 37° C. for 24 hours and changed with fresh media. Varying amounts of drugs were added and cells were incubated for another 24 hours. Culture media were collected and heated at 65° C. for 10 min to inactivate heat-labile phosphatases. An equal amount of SEAP buffer (2 M diethanolamine, 1 mM MgCl2, and 20 mM L-homoarginine) was added to the media and p-nitrophenyl phosphate was added to a final concentration of 12 mM. Absorptions at 405 nm were taken, and the rate of absorption increase is determined (the increasing rate of absorbance at 405 nm was used to represent the activity of SEAP).

[2] = MTT assay (relative cell survival), H1299; conditions: human, H1299 non-small cell lung cancer cells (PhTERT-SEAP), Relative MTT viability (%)
Description: Further, cells were subjected to MTT assay to compare the relative toxicity or effect of each compound on cell proliferation and activity.
The above-described cells are cultured in a 96-well plate, to which was added with 25 μl MTT solution, and cultured in a 37° C. carbon dioxide incubator for 4 hours. Then, 100 μl Lysis buffer is added and incubated in a 37° C. carbon dioxide incubator overnight. An ELISA reader (Bio-Rad Model 450) is used to read optical density (O.D.) at 550 nm.
After being subjected to different compound treatments for 72 hours, cells were treated with a fixed amount of MTT solution for 28 hours. Then, DMSO was used to dissolve back formazan, an O. D. value was detected at wavelength in the range of 550/670 nm, and calculated accordingly the cell survival rate (as shown in Table 1).

Structure (SMILES): CCN(C)Cc1nc2ccc3c(c2[nH]1)C(=O)c1ccccc1C3=O [CL03, 2-((ethylmethylamino)methyl)-1H-anthra[1,2-d]imidazole-6,11-dione]
- activity at 1 µM [1]: 97.1 ± 12%
- activity at 10 µM [1]: < 50%
- activity at 100 µM [1]: -2.69%
- viability at 72 h, 1 µM [2]: 98.9 ± 3.64%
- viability at 72 h, 10 µM [2]: > 50%

Structure (SMILES): O=C1c2ccccc2C(=O)c2c1ccc1nc(CN(Cc3ccccn3)Cc3ccccn3)[nH]c21 [CL10, 2-((di-(2-picolyl)amino)methyl)-1H-anthra[1,2-d]imidazole-6,11-dione]
- activity at 1 µM [1]: 86.5 ± 3.63%
- activity at 10 µM [1]: -6.44%
- activity at 100 µM [1]: -7.58%
- viability at 72 h, 1 µM [2]: 101 ± 5.98%

Structure (SMILES): N#Cc1ccccc1N1CCN(Cc2nc3ccc4c(c3[nH]2)C(=O)c2ccccc2C4=O)CC1 [CL31, 2-((4-(2-cyanophenyl)piperazin-1-yl)methyl)-1H-anthra[1,2-d]imidazole-6,11-dione]
- activity at 1 µM [1]: 106 ± 4.67%
- activity at 10 µM [1]: 56.7%
- activity at 100 µM [1]: 5.59%
- viability at 72 h, 1 µM [2]: 78.3 ± 5.02%
- viability at 72 h, 10 µM [2]: 61.7%
- viability at 72 h, 100 µM [2]: 21.6%

Structure (SMILES): O=C(CCCl)Nc1ccc2c(c1NC(=O)CCCl)C(=O)c1ccccc1C2=O [CL34, 1,2-bis(3-chloropropionamido)anthraquinone]
- activity at 1 µM [1]: 87.4 ± 4.51%
- activity at 10 µM [1]: 12.5 ± 4.35%
- activity at 100 µM [1]: -2.74 ± 0.61%
- viability at 72 h, 1 µM [2]: 94.1 ± 3.21%
- viability at 72 h, 10 µM [2]: < 50%
- viability at 72 h, 100 µM [2]: 5.85 ± 2.1%

Structure (SMILES): O=C1c2ccccc2C(=O)c2c1ccc1nc(CN3CCN(c4ccccc4F)CC3)[nH]c21 [CL30, 2-((4-(2-fluorophenyl)piperazin-1-yl)methyl)-1H-anthra[1,2-d]imidazole-6,11-dione]
- activity at 1 µM [1]: 103 ± 3.44%
- activity at 10 µM [1]: 78.2%
- activity at 100 µM [1]: -0.29%
- viability at 72 h, 1 µM [2]: 88.4 ± 2.16%
- viability at 72 h, 10 µM [2]: 76.7%
- viability at 72 h, 100 µM [2]: 14.8%

Structure (SMILES): O=C1c2ccccc2C(=O)c2c1ccc1nc(CN3CCOCC3)[nH]c21 [CL21, 2-(morpholinomethyl)-1H-anthra[1,2-d]imidazole-6,11-dione]
- activity at 1 µM [1]: 102 ± 4.81%
- activity at 10 µM [1]: 97.3%
- activity at 100 µM [1]: 25.6%
- viability at 72 h, 1 µM [2]: 89.8 ± 2.58%
- viability at 72 h, 10 µM [2]: 70.8%
- viability at 72 h, 100 µM [2]: 13.4%

Structure (SMILES): O=C1c2ccccc2C(=O)c2c1ccc1nc(CNCc3ccccc3C(F)(F)F)[nH]c21 [CL12, 2-((2-(trifluoromethyl)benzylamino)methyl)-1H-anthra[1,2-d]imidazole-6,11-dione]
- activity at 1 µM [1]: 87.3 ± 3.26%
- activity at 10 µM [1]: 81.2%
- activity at 100 µM [1]: -1.71%
- viability at 72 h, 1 µM [2]: 98.5 ± 5.49%
- viability at 72 h, 10 µM [2]: 96.3%
- viability at 72 h, 100 µM [2]: 6.32%

Structure (SMILES): CN(Cc1nc2ccc3c(c2[nH]1)C(=O)c1ccccc1C3=O)CC1OCCO1 [CL08, 2-(((1,3-dioxolan-2-yl)-N-methylmethanamino)methyl)-1H-anthra[1,2-d]imidazole-6,11-dione]
- activity at 1 µM [1]: 90.4 ± 2.87%
- activity at 10 µM [1]: 68.7%
- activity at 100 µM [1]: 6.78%
- viability at 72 h, 1 µM [2]: 104 ± 3.91%
- viability at 72 h, 10 µM [2]: 89.8%
- viability at 72 h, 100 µM [2]: 28.3%

Structure (SMILES): O=C1c2ccccc2C(=O)c2c1ccc1nc(CN3CCSCC3)[nH]c21 [CL22, 2-(thiomorpholinomethyl)-1H-anthra[1,2-d]imidazole-6,11-dione]
- activity at 1 µM [1]: 115 ± 2.45%
- activity at 10 µM [1]: 76.7%
- activity at 100 µM [1]: 4.62%
- viability at 72 h, 1 µM [2]: 91.8 ± 3.61%
- viability at 72 h, 10 µM [2]: 77.5%
- viability at 72 h, 100 µM [2]: 0.93%

Structure (SMILES): COc1cccc(CN(C)Cc2nc3ccc4c(c3[nH]2)C(=O)c2ccccc2C4=O)c1 [CL09, 2-((3-methoxy-N-methybenzylamino)methyl)-1H-anthra[1,2-d]imidazole-6,11-dione]
- activity at 1 µM [1]: 105 ± 3.38%
- activity at 10 µM [1]: 78.1%
- activity at 100 µM [1]: -3.01%
- viability at 72 h, 1 µM [2]: 96.6 ± 5.02%
- viability at 72 h, 10 µM [2]: 97.6%
- viability at 72 h, 100 µM [2]: 9.24%

Structure (SMILES): O=C1c2ccccc2C(=O)c2c1ccc1nc(CN3CCC4(CC3)OCCO4)[nH]c21 [CL19, 2-((1,4-dioxa-8-azaspiro[4.5]decane-8-yl)methyl)-1H-anthra[1,2-d]imidazole-6,11-dione]
- activity at 1 µM [1]: 97 ± 1.84%
- activity at 10 µM [1]: 95.5%
- activity at 100 µM [1]: 14.1%
- viability at 72 h, 1 µM [2]: 103 ± 2.09%
- viability at 72 h, 10 µM [2]: 79.2%
- viability at 72 h, 100 µM [2]: 14.8%

Structure (SMILES): C=CCN1CCN(Cc2nc3ccc4c(c3[nH]2)C(=O)c2ccccc2C4=O)CC1 [CL26, 2-((4-allylpiperazin-1-yl)methyl)-1H-anthra[1,2-d]imidazole-6,11-dione]
- activity at 1 µM [1]: 87.2 ± 1.82%
- activity at 10 µM [1]: 16.7%
- activity at 100 µM [1]: -6.77%
- viability at 72 h, 1 µM [2]: 86 ± 3.37%
- viability at 72 h, 10 µM [2]: 44.8%

Structure (SMILES): O=C1c2ccccc2C(=O)c2c1ccc1nc(CNCc3ccc(C(F)(F)F)cc3)[nH]c21 [CL14, 2-((4-(trifluoromethyl)benzylamino)methyl)-1H-anthra[1,2-d]imidazole-6,11-dione]
- activity at 1 µM [1]: 51.6 ± 0.68%
- activity at 10 µM [1]: 78.5%
- activity at 100 µM [1]: 2.56%
- viability at 72 h, 1 µM [2]: 74.3 ± 4.04%
- viability at 72 h, 10 µM [2]: 10.6%

Structure (SMILES): O=C1c2ccccc2C(=O)c2c1ccc1nc(CN3CCSC3)[nH]c21 [CL23, 2-((thiazolidin-3-yl)methyl)-1H-anthra[1,2-d]imidazole-6,11-dione]
- activity at 1 µM [1]: 106 ± 3.01%
- activity at 10 µM [1]: 85.6%
- activity at 100 µM [1]: 11.9%
- viability at 72 h, 1 µM [2]: 89.3 ± 4.79%
- viability at 72 h, 10 µM [2]: 75.5%
- viability at 72 h, 100 µM [2]: 5.18%

Structure (SMILES): CCCN(C)Cc1nc2ccc3c(c2[nH]1)C(=O)c1ccccc1C3=O [CL05, 2-((methylpropylamino)methyl)-1H-anthra[1,2-d]imidazole-6,11-dione]
- activity at 1 µM [1]: 96 ± 6.58%
- activity at 10 µM [1]: < 50%
- activity at 100 µM [1]: -0.38%
- viability at 72 h, 1 µM [2]: 93.5 ± 7.25%

Structure (SMILES): O=C1c2ccccc2C(=O)c2c1ccc1nc(CCN3CCN(c4ncccn4)CC3)[nH]c21 [CL39, 2-(2-(4-(pyrimidin-2-yl)piperazin-1-yl)ethyl)-1H-anthra[1,2-d]imidazole-6,11-dione]
- activity at 1 µM [1]: 83 ± 3.61%
- activity at 10 µM [1]: < 50%
- activity at 100 µM [1]: -8.09%
- viability at 72 h, 1 µM [2]: 90.7 ± 5.81%

Structure (SMILES): O=C1c2ccccc2C(=O)c2c1ccc1nc(CN3CCCCCC3)[nH]c21 [CL18, 2-((azepan-1-yl)methyl)-1H-anthra[1,2-d]imidazole-6,11-dione]
- activity at 1 µM [1]: 107 ± 5.16%
- activity at 10 µM [1]: 66.5%
- activity at 100 µM [1]: 3.79%
- viability at 72 h, 1 µM [2]: 104 ± 6.82%
- viability at 72 h, 10 µM [2]: 85.1%

Structure (SMILES): O=C1c2ccccc2C(=O)c2c1ccc1nc(CNCc3ccc4c(c3)OCO4)[nH]c21 [CL15, 2-((piperonylamino)methyl)-1H-anthra[1,2-d]imidazole-6,11-dione]
- activity at 1 µM [1]: 74.5 ± 14.3%
- activity at 10 µM [1]: 74.6 ± 17.4%
- activity at 100 µM [1]: 1.32%
- viability at 72 h, 1 µM [2]: 109 ± 2.02%
- viability at 72 h, 10 µM [2]: 103%
- viability at 72 h, 100 µM [2]: 14.2%

Structure (SMILES): CN(C)Cc1nc2ccc3c(c2[nH]1)C(=O)c1ccccc1C3=O [CL02, 2-((dimethylamino)methyl)-1H-anthra[1,2-d]imidazole-6,11-dione]
- activity at 1 µM [1]: 83.6 ± 8.52%
- activity at 10 µM [1]: < 50%
- activity at 100 µM [1]: -2.26%
- viability at 72 h, 1 µM [2]: 98.9 ± 6.37%
- viability at 72 h, 10 µM [2]: > 50%

Structure (SMILES): CN1CCN(CCc2nc3ccc4c(c3[nH]2)C(=O)c2ccccc2C4=O)CC1 [CL36, 2-(2-(4-methylpiperazin-1-yl)ethyl)-1H-anthra[1,2-d]imidazole-6,11-dione]
- activity at 1 µM [1]: 73.9 ± 3.2%
- activity at 10 µM [1]: 7.1%
- activity at 100 µM [1]: -3.06%
- viability at 72 h, 1 µM [2]: 87.2 ± 6.98%
- viability at 72 h, 10 µM [2]: < 50%

Structure (SMILES): O=C1c2ccccc2C(=O)c2c1ccc1nc(CCN3CCN(Cc4ccccc4)CC3)[nH]c21 [CL40, 2-(2-(4-benzylpiperazin-1-yl)ethyl)-1H-anthra[1,2-d]imidazole-6,11-dione]
- activity at 1 µM [1]: 73 ± 8.24%
- activity at 100 µM [1]: -7.29 ± 0.0949%
- viability at 72 h, 1 µM [2]: 95.6 ± 8.22%
- viability at 72 h, 10 µM [2]: > 50%
- viability at 72 h, 100 µM [2]: 6.65%

Structure (SMILES): O=C1c2ccccc2C(=O)c2c1ccc1nc(CN3CCN(Cc4ccccc4)CC3)[nH]c21 [CL33, 2-((4-benzylpiperazin-1-yl)methyl)-1H-anthra[1,2-d]imidazole-6,11-dione]
- activity at 1 µM [1]: 97.8 ± 7.2%
- activity at 100 µM [1]: -2.7%
- viability at 72 h, 1 µM [2]: 92.6 ± 1.56%
- viability at 72 h, 10 µM [2]: > 50%
- viability at 72 h, 100 µM [2]: 12.7%

Structure (SMILES): O=C1c2ccccc2C(=O)c2c1ccc1nc(CN3CCN(c4ncccn4)CC3)[nH]c21 [CL29, 2-((4-(pyrimidin-2-yl)piperazin-1-yl)methyl)-1H-anthra[1,2-d]imidazole-6,11-dione]
- activity at 1 µM [1]: 111 ± 3.55%
- activity at 10 µM [1]: 92.2%
- activity at 100 µM [1]: 19.4%
- viability at 72 h, 1 µM [2]: 85.5 ± 3.17%
- viability at 72 h, 10 µM [2]: 73.7%
- viability at 72 h, 100 µM [2]: 28.2%
